Data published in US12371428B2 (Exelixis, Inc., priority 2019, dated 2025).
Where two headings read alike, the source gives them in different places.

Legend:
[1] = target: Human KDR (residues 790-1356) (Homo sapiens (Human), UniProt P35968); experiment: Human KDR kinase assay, HTRF KinEase (Example B-2); assay type: biochemical
Outline: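 Ten compound concentrations (3% DMSO final) were pre-plated, then KDR (790-1356) with biotinylated peptide in Mg/Mn/DTT buffer was added; ATP at Km (4.0 μM) started a 40 min room-temperature reaction. Detection used Eu-TK antibody and SA-XL665 in EDTA buffer; activity normalized to DMSO and reference inhibitor, IC50 by logistic fit.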

[2] = target: Mer (phospho-Mer, MERTK-transfected 293A cells) (Homo sapiens (Human), UniProt Q12866); experiment: Mer autophosphorylation ELISA in transient transfected 293A cells (Example H); assay type: cell-based; conditions: cellular activity; Mer autophosphorylation ELISA in transient transfected 293A cells
Outline: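 IC50 from phospho-Mer ELISA of MERTK-transfected 293A cell lysates after 1 h treatment with serially diluted compound in serum-free medium.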

[3] = target: Met (phospho-Met, HGF-stimulated PC-3 prostate cancer cells) (Homo sapiens (Human), UniProt P08581); experiment: Met autophosphorylation ELISA in PC-3 cells (Example F); assay type: cell-based; conditions: cellular activity; Met autophosphorylation ELISA in PC-3 cells; read-out: c-Met IC50
Outline: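 IC50 values derive from a 4-parameter logistic fit of phospho-Met (panTyr) sandwich ELISA signals in PC-3 lysates, scaled between DMSO and reference-inhibitor wells. Cells, starved 3 h in serum-free medium, had 1 h compound exposure (8 doses, 0.3% DMSO) before 10 min stimulation with 100 ng/mL HGF.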

[4] = target: Human MET (residues 956-1390) (Homo sapiens (Human), UniProt P08581); experiment: Human Met kinase assay, HTRF KinEase (Example D-2); assay type: biochemical; conditions: read-out: c-Met IC50
Outline: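 MET kinase domain (956-1390), 0.1 ng/well, in buffer with 5 mM MgCl2, 1 mM DTT and 1 mM MnCl2, phosphorylated a biotinylated peptide at ATP Km for 40 min at RT; 10 concentrations, 3% DMSO final. EDTA-stopped HTRF read after 60 min; IC50 from a 4-parameter logistic fit.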

[5] = protocol of Example B-2 (other compounds)
[6] = protocol of Example D-2 (other compounds)

Sequence of Met (phospho-Met, HGF-stimulated PC-3 prostate cancer cells) (P08581 25-1390): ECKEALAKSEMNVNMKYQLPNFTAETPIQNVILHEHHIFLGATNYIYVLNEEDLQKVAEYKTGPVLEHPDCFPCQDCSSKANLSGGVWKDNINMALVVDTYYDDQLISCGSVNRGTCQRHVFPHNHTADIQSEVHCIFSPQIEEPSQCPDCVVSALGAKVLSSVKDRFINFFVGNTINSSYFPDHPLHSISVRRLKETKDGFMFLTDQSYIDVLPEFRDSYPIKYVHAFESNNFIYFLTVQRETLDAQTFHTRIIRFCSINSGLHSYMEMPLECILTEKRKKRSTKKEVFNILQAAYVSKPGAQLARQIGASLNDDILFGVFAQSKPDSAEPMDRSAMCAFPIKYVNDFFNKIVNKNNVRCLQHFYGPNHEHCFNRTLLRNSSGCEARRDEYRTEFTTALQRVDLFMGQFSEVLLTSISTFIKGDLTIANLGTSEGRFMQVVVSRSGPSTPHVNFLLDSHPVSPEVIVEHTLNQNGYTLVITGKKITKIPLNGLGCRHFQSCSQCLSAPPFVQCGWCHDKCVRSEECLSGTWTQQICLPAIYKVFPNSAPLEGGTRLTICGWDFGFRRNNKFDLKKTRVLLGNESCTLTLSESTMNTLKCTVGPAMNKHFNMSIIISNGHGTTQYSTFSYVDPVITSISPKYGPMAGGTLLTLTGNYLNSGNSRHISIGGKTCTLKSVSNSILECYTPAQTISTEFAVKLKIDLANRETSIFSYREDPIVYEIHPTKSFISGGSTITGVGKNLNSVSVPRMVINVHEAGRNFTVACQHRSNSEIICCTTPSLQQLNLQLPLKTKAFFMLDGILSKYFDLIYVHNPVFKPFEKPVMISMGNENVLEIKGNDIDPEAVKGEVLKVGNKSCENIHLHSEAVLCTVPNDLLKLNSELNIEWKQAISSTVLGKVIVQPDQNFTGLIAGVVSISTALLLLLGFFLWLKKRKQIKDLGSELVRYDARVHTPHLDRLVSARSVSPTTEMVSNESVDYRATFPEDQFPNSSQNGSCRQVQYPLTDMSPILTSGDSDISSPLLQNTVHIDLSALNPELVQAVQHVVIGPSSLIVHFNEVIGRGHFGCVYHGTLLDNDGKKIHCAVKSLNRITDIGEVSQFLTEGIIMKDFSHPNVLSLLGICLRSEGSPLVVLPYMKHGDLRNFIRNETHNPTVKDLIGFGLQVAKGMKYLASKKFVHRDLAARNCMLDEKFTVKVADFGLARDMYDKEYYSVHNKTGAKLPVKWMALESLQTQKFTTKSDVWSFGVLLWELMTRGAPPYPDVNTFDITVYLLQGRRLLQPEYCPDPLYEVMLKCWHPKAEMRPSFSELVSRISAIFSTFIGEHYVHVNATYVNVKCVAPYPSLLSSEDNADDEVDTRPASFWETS
Sequence of Mer (phospho-Mer, MERTK-transfected 293A cells) (Q12866 21-999): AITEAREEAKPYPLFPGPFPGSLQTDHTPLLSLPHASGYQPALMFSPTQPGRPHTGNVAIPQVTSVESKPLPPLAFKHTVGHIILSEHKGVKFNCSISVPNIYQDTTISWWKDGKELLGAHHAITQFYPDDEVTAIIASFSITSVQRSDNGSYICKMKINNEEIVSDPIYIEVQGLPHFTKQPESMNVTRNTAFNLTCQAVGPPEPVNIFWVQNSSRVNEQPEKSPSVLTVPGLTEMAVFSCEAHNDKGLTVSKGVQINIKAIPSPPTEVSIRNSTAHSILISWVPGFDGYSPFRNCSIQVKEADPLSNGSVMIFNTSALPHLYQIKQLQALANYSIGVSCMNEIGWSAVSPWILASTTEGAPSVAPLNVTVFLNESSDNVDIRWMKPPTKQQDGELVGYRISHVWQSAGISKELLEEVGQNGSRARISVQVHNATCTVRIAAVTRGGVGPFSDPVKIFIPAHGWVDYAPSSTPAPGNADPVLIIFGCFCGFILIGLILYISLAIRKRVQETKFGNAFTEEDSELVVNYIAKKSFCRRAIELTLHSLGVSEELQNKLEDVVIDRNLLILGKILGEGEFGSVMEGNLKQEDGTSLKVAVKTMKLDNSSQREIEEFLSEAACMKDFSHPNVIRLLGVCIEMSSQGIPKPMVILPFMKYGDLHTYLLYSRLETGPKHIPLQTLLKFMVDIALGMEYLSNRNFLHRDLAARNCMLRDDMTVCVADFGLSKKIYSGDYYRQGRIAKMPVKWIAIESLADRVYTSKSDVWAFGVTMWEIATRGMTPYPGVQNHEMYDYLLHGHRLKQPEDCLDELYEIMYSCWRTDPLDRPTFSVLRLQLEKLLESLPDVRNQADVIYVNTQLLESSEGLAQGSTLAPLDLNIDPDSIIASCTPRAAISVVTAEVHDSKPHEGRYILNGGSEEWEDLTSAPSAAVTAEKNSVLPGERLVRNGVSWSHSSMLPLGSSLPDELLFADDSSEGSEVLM
Sequence of Human MET (residues 956-1390) (P08581 956-1390): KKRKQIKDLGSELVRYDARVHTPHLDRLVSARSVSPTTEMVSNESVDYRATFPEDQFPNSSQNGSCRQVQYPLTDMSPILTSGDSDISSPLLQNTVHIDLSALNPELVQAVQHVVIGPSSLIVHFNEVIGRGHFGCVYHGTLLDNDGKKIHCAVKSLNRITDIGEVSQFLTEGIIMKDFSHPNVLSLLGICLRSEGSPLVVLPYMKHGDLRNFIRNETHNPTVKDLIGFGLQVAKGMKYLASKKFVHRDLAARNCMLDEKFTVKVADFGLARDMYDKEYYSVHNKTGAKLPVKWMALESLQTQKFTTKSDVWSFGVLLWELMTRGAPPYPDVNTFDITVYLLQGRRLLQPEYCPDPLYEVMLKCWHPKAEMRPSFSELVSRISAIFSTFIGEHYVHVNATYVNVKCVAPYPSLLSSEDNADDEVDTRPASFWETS
Sequence of Human KDR (residues 790-1356) (P35968 790-1356): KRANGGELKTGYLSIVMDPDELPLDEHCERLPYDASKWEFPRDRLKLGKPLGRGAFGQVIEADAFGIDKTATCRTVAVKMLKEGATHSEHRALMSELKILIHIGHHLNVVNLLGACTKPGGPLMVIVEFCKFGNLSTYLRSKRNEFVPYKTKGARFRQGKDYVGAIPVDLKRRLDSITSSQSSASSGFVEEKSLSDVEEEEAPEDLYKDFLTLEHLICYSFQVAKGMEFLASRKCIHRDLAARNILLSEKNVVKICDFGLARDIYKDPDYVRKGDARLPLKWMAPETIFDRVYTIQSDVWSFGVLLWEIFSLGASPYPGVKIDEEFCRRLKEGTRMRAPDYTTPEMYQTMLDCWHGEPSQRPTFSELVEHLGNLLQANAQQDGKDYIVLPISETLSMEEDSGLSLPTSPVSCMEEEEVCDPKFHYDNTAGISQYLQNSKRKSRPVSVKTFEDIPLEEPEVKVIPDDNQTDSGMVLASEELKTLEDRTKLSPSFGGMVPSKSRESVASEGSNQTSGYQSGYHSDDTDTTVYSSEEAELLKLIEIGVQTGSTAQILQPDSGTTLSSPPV

SMILES | IC50 [1, 5] [nM] | IC50 [2] [nM] | IC50 [3] [nM] | IC50 [4, 6] [nM] | IC50 ([1]; protocol of Example B-2) [nM] | IC50 ([4]; protocol of Example D-2) [nM]
COc1cnc2c(Oc3ccc(NC(=O)c4cn(C(C)C)c(C)c(-c5ccc(F)cc5)c4=O)cc3)ccnc2c1 [Compound 148, 5-(4-Fluorophenyl)-N-[4-[(7-methoxy-1,5-naphthyridin-4-yl)oxy]phenyl]-6-methyl-4-oxo-1-propan-2-ylpyridine-3-carboxamide] | > 300 | < 100 | < 100 | < 100 | – | –
COc1cnc2c(Oc3ccc(NC(=O)c4cnc(C)c(-c5ccc(F)cc5C)c4O)cc3F)ccnc2c1 [Compound 175, N-[3-Fluoro-4-[(7-methoxy-1,5-naphthyridin-4-yl)oxy]phenyl]-5-(4-fluoro-2-methylphenyl)-4-hydroxy-6-methylpyridine-3-carboxamide] | 100 to 300 | < 100 | < 100 | < 100 | – | –
COc1cc2nccc(Oc3ccc(NC(=O)c4cn(-c5cnn(C)c5)c(C)c(-c5ccc(F)cc5)c4=O)cc3F)c2nc1OC [Compound 140, N-[4-[(6,7-Dimethoxy-1,5-naphthyridin-4-yl)oxy]-3-fluorophenyl]-5-(4-fluorophenyl)-6-methyl-1-(1-methylpyrazol-4-yl)-4-oxopyridine-3-carboxamide] | > 300 | < 100 | < 100 | < 100 | – | –
CCn1cc(C(=O)Nc2ccc(Oc3ccnc4cc(OC)cnc34)cc2)c(=O)c(-c2ccc(F)cc2)c1C [Compound 163, 1-Ethyl-5-(4-fluorophenyl)-N-[4-[(7-methoxy-1,5-naphthyridin-4-yl)oxy]phenyl]-6-methyl-4-oxopyridine-3-carboxamide] | > 300 | < 100 | < 100 | < 100 | – | –
COc1cnc2c(Oc3ccc(NC(=O)c4cncc(-c5ccc(F)cc5)c4O)cc3)ccnc2c1 [Compound 146, 5-(4-Fluorophenyl)-4-hydroxy-N-[4-[(7-methoxy-1,5-naphthyridin-4-yl)oxy]phenyl]pyridine-3-carboxamide] | < 100 | < 100 | < 100 | < 100 | – | –
COc1cnc2c(Oc3ccc(NC(=O)c4cn(OC)cc(-c5ccc(F)cc5)c4=O)cc3F)ccnc2c1 [Compound 128, N-[3-Fluoro-4-[(7-methoxy-1,5-naphthyridin-4-yl)oxy]phenyl]-5-(4-fluorophenyl)-1-methoxy-4-oxopyridine-3-carboxamide] | 100 to 300 | < 100 | < 100 | < 100 | – | –
CNc1c(-c2ccc(F)cc2)c(=O)c(C(=O)Nc2ccc(Oc3ccnc4cc(OC)cnc34)c(F)c2)cn1C [Compound 585, N-[3-Fluoro-4-[(7-methoxy-1,5-naphthyridin-4-yl)oxy]phenyl]-5-(4-fluorophenyl)-1-methyl-6-(methylamino)-4-oxopyridine-3-carboxamide] | – | < 100 | < 100 | – | > 300 | < 100
CCc1nc2c(Oc3ccc(NC(=O)c4cnc(C)c(-c5ccc(F)cc5)c4O)cc3F)ccnc2cc1OC [Compound 589, N-[4-[(6-Ethyl-7-methoxy-1,5-naphthyridin-4-yl)oxy]-3-fluorophenyl]-5-(4-fluorophenyl)-4-hydroxy-6-methylpyridine-3-carboxamide] | – | < 100 | < 100 | – | < 100 | < 100
Cc1ncc(C(=O)Nc2ccc(Oc3ccnc4cnccc34)cc2)c(O)c1-c1ccc(F)cc1 [Compound 643, 5-(4-fluorophenyl)-4-hydroxy-6-methyl-N-[4-(1,7-naphthyridin-4-yloxy)phenyl]pyridine-3-carboxamide] | – | < 100 | < 100 | – | < 100 | < 100
COC(=O)c1cnc2c(Oc3ccc(NC(=O)c4cnc(C)c(-c5ccc(F)cc5)c4O)cc3F)ccnc2c1 [Compound 138, Methyl 8-[2-fluoro-4-[[5-(4-fluorophenyl)-4-hydroxy-6-methylpyridine-3-carbonyl]amino]phenoxy]-1,5-naphthyridine-3-carboxylate] | > 300 | 100 to 300 | > 300 | < 100 | – | –
COc1cc2nccc(Oc3ccc(NC(=O)c4cnc(C)c(-c5ccc(F)cc5)c4O)cc3)c2cc1OC [Compound 171, N-[4-(6,7-Dimethoxyquinolin-4-yl)oxyphenyl]-5-(4-fluorophenyl)-4-hydroxy-6-methylpyridine-3-carboxamide] | < 100 | < 100 | < 100 | < 100 | – | –
COc1cnc2c(Oc3ccc(NC(=O)c4cn(C)c(OC)c(-c5ccc(F)cc5)c4=O)cc3F)ccnc2c1 [Compound 587, N-[3-Fluoro-4-[(7-methoxy-1,5-naphthyridin-4-yl)oxy]phenyl]-5-(4-fluorophenyl)-6-methoxy-1-methyl-4-oxopyridine-3-carboxamide] | – | < 100 | < 100 | – | > 300 | < 100
COc1cc2nccc(Oc3ccc(NC(=O)c4cn(C(C)C)c(C)c(-c5ccc(F)cc5)c4=O)cc3F)c2nc1NS(C)(=O)=O [Compound 581, N-[3-Fluoro-4-[[6-(methanesulfonamido)-7-methoxy-1,5-naphthyridin-4-yl]oxy]phenyl]-5-(4-fluorophenyl)-6-methyl-4-oxo-1-propan-2-ylpyridine-3-carboxamide] | – | < 100 | 100 to 300 | – | < 100 | < 100
COc1nc2c(Oc3ccc(NC(=O)c4cn(C(C)C)c(C)c(-c5ccc(F)cc5)c4=O)cc3F)ccnc2cc1Br [Compound 132, N-[4-[(7-Bromo-6-methoxy-1,5-naphthyridin-4-yl)oxy]-3-fluorophenyl]-5-(4-fluorophenyl)-6-methyl-4-oxo-1-propan-2-ylpyridine-3-carboxamide] | 100 to 300 | < 100 | 100 to 300 | < 100 | – | –
Cc1nc2c(Oc3ccc(NC(=O)c4cn(C(C)C)c(C)c(-c5ccc(F)cc5)c4=O)cc3F)ccnc2cc1-c1cccnc1 [Compound 620, N-[3-Fluoro-4-[(6-methyl-7-pyridin-3-yl-1,5-naphthyridin-4-yl)oxy]phenyl]-5-(4-fluorophenyl)-6-methyl-4-oxo-1-propan-2-ylpyridine-3-carboxamide] | – | < 100 | 100 to 300 | – | > 300 | < 100
Cc1ncc(C(=O)Nc2ccc(Oc3ccnc4cc(-c5cnn(C(F)F)c5)cnc34)cc2)c(O)c1-c1ccc(F)cc1 [Compound 611, N-[4-[[7-[1-(Difluoromethyl)pyrazol-4-yl]-1,5-naphthyridin-4-yl]oxy]phenyl]-5-(4-fluorophenyl)-4-hydroxy-6-methylpyridine-3-carboxamide] | – | < 100 | < 100 | – | < 100 | < 100
COc1cc2nccc(Oc3ccc(NC(=O)c4cnc(C)c(-c5ccc(F)cc5)c4O)cc3)c2nc1OC [Compound 119, N-[4-[(6,7-Dimethoxy-1,5-naphthyridin-4-yl)oxy]phenyl]-5-(4-fluorophenyl)-4-hydroxy-6-methylpyridine-3-carboxamide] | < 100 | < 100 | < 100 | < 100 | – | –
CCc1nc2c(Oc3ccc(NC(=O)c4cn(C(C)C)c(C)c(-c5ccc(F)cc5)c4=O)cc3F)ccnc2cc1OC [Compound 588, N-[4-[(6-Ethyl-7-methoxy-1,5-naphthyridin-4-yl)oxy]-3-fluorophenyl]-5-(4-fluorophenyl)-6-methyl-4-oxo-1-propan-2-ylpyridine-3-carboxamide] | – | < 100 | < 100 | – | > 300 | < 100
COc1cnc2c(Oc3ccc(NC(=O)c4cn(C)c(C#N)c(-c5ccc(F)cc5)c4=O)cc3F)ccnc2c1 [Compound 586, 6-Cyano-N-[3-fluoro-4-[(7-methoxy-1,5-naphthyridin-4-yl)oxy]phenyl]-5-(4-fluorophenyl)-1-methyl-4-oxopyridine-3-carboxamide] | – | < 100 | 100 to 300 | – | > 300 | < 100
COc1cc2ncnc(Oc3ccc(NC(=O)c4cn(-c5cnn(C)c5)cc(-c5ccc(F)cc5)c4=O)cc3F)c2nc1OC [Compound 637, N-[4-(6,7-dimethoxyprido[3,2-d]pyrimidin-4-yl)oxy-3-fluorophenyl]-5-(4-fluorophenyl)-1-(1-methylpyrazol-4-yl)-4-oxopyridine-3-carboxamide] | – | < 100 | < 100 | – | > 300 | < 100
